Here are results for one compound from patent US20230310416A1, “SUSPENSION OF TRIAZOLE ANTIFUNGAL DRUG FOR ATOMIZER” (SHANGHAI FRONTIER HEALTH PHARMACEUTICAL TECHNOLOGY CO., LTD, priority 2020, published 2023).

In this experiment the test system is bleomycin-induced idiopathic pulmonary fibrosis in mice. Briefly: Mouse model of pulmonary fibrosis induced by bleomycin, inhalation versus oral administration. Type of experiment: in vivo, ICR mice. The conditions noted are these: once a day for 22 days. Here is the method: In order to investigate the efficacy of itraconazole suspension of the present invention by inhalation administration, a mouse model of pulmonary fibrosis induced by bleomycin 2 mg/kg/mouse was established and compared with that by oral administration.
Test animals: ICR mice: SPF grade, body weight 22-24 g, male.
Test drugs: itraconazole suspension prepared in Example 3
Model establishment: 2 mg/kg of bleomycin hydrochloride for injection was sprayed into the respiratory tract of each mouse to induce pulmonary fibrosis, 4 weeks later, a mouse pulmonary fibrosis model was established.
Animal grouping: Mice were randomly divided into 4 groups, namely a blank control group, a model group, an itraconazole inhalation group, in which 2.5 mg/kg was inhaled for 3 minutes (2.5 mg/kg Inhalation group) and an itraconazole oral group, in which 15 mg/kg was orally administrated(15 mg/kg Oral group). The drugs were administered once a day for 22 consecutive days from the fifth day after modeling.
Detecting indexes: the mice were sacrificed after administration, the trachea was separated, the left lung was ligated, the bronchoalveolar lavage (BAL) was performed, the bronchoalveolar lavage fluid (BALF) was taken for white cell count and classification count, after the lung tissue was fixed with formalin, paraffin embedding, sectioning, H & E staining and Masson’s staining were carried out. The contents of transforming growth factor (TGF- β 1), mouse type I collagen (Col I) and hydroxyproline in lung tissue in supernatant of the BALF were detected by a kit.

With `CCC(C)n1ncn(-c2ccc(N3CCN(c4ccc(OCC5COC(Cn6cncn6)(c6ccc(Cl)cc6Cl)O5)cc4)CC3)cc2)c1=O` (stereo not drawn) [itraconazole], where the note is “2.5 mg/kg inhalation”, the “Collagen deposition in lung tissue” value worked out at 62759.9±17865.8, the “Content of Col I in BALF” value was 1.64 ± 0.64 ng/mL, the “Content of TGF-β1 in BALF” value stood at 32.13 ± 25.97 pg/mL and the “Content of hydroxyproline in lung tissue” value is given as 526.7 ±66.0 µg/g tissue. In addition, for the setting “2.5 mg/kg inhalation”, the “Number of neutrophils in BALF” value is on record as 12.08±5.85 1 × 10^4 cell/ml and the “Total number of white blood cells in BALF” value is 26.13 ±5.93 1 × 10^4 cell/ml. Also, for the setting “15 mg/kg oral”, the “Collagen deposition in lung tissue” value worked out at 166628.8±35819.8, the “Content of Col I in BALF” value was 1.91 ± 0.86 ng/mL, the “Content of TGF-β1 in BALF” value is 24.79 ± 12.72 pg/mL and the “Content of hydroxyproline in lung tissue” value stood at 583.8 ±96.6 µg/g tissue. Also, under “15 mg/kg oral”, the “Number of neutrophils in BALF” value is 13.71 ±7.58 1 × 10^4 cell/ml and the “Total number of white blood cells in BALF” value is 29.13±10.99 1 × 10^4 cell/ml.
